Measured values as given in PMC11314561, “Design and Synthesis of Novel Aminoindazole-pyrrolo[2,3-b]pyridine Inhibitors of IKKα That Selectively Perturb Cellular Non-Canonical NF-κB Signalling” (Molecules, 2024).
Blank lines part the entries; values can stand above or below the molecule they belong to.

Tests used:
Test in all cases: kinase panel
Type in all cases: biochemical
[1] = molecular target: MAPKAP-K3(h) (Homo sapiens, UniProt Q16644)
Method in brief: (§1)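 Values are percent inhibition from kinome-wide profiling of three series compounds across 231 kinases, with a structurally similar analogue tested on only 98 selected kinases.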

[2] = molecular target: PDGFRα(h) (Homo sapiens, UniProt P16234)
Method in brief: as §1

[3] = molecular target: NEK3(h) (Homo sapiens, UniProt P51956)
Method in brief: as §1

[4] = molecular target: MSSK1(h) (Homo sapiens, UniProt Q9UPE1)
Method in brief: as §1

[5] = molecular target: PKG1α(h) (Homo sapiens, UniProt Q13976)
Method in brief: as §1

[6] = molecular target: cKit(h) (Homo sapiens, UniProt P10721)
Method in brief: as §1

[7] = molecular target: CK1γ3(h) (Homo sapiens, UniProt Q9Y6M4)
Method in brief: as §1

[8] = molecular target: CLK3(h) (Homo sapiens, UniProt P49761)
Method in brief: as §1

[9] = molecular target: p70S6K(h) (Homo sapiens, UniProt P23443)
Method in brief: as §1

[10] = molecular target: PKCε(h) (Homo sapiens, UniProt Q02156)
Method in brief: as §1

[11] = molecular target: CK2α2(h) (Homo sapiens, UniProt P19784)
Method in brief: as §1

[12] = molecular target: PKCζ(h) (Homo sapiens, UniProt Q05513)
Method in brief: as §1

[13] = molecular target: VRK2(h) (Homo sapiens, UniProt Q86Y07)
Method in brief: as §1

[14] = molecular target: Ros(h) (Homo sapiens, UniProt P08922)
Method in brief: as §1

[15] = molecular target: SRPK1(h) (Homo sapiens, UniProt Q96SB4)
Method in brief: as §1

[16] = molecular target: PTK5(h) (Homo sapiens, UniProt P42685)
Method in brief: as §1

[17] = molecular target: GRK7(h) (Homo sapiens, UniProt Q8WTQ7)
Method in brief: as §1

[18] = molecular target: IGF-1R(h), activated (Homo sapiens, UniProt P08069)
Method in brief: as §1

[19] = molecular target: EphB3(h) (Homo sapiens, UniProt P54753)
Method in brief: as §1

[20] = molecular target: ULK3(h) (Homo sapiens, UniProt Q6PHR2)
Method in brief: as §1

[21] = molecular target: Mnk2(h) (Homo sapiens, UniProt Q9HBH9)
Method in brief: as §1

[22] = molecular target: Bmx(h) (Homo sapiens, UniProt P51813)
Method in brief: as §1

[23] = molecular target: CK1γ2(h) (Homo sapiens, UniProt P78368)
Method in brief: as §1

[24] = molecular target: TAO3(h) (Homo sapiens, UniProt Q9H2K8)
Method in brief: as §1

[25] = molecular target: PrKX(h) (Homo sapiens, UniProt P51817)
Method in brief: as §1

[26] = molecular target: LOK(h) (Homo sapiens, UniProt O94804)
Method in brief: as §1

[27] = molecular target: FGFR2(h) (Homo sapiens, UniProt P21802)
Method in brief: as §1

[28] = molecular target: Hck(h) activated (Homo sapiens, UniProt P08631)
Method in brief: as §1

[29] = molecular target: PKCδ(h) (Homo sapiens, UniProt Q05655)
Method in brief: as §1

[30] = molecular target: Lyn(h) (Homo sapiens, UniProt P07948)
Method in brief: as §1

[31] = molecular target: Rsk3(h) (Homo sapiens, UniProt Q15349)
Method in brief: as §1

[32] = molecular target: PKCβI(h) (Homo sapiens, UniProt P05771)
Method in brief: as §1

[33] = molecular target: WNK3(h) (Homo sapiens, UniProt Q9BYP7)
Method in brief: as §1

[34] = molecular target: GRK6(h) (Homo sapiens, UniProt P43250)
Method in brief: as §1

[35] = molecular target: EphB4(h) (Homo sapiens, UniProt P54760)
Method in brief: as §1

[36] = molecular target: Rse(h) (Homo sapiens, UniProt Q06418)
Method in brief: as §1

[37] = molecular target: PKCγ(h) (Homo sapiens, UniProt P05129)
Method in brief: as §1

[38] = molecular target: Rsk4(h) (Homo sapiens, UniProt Q9UK32)
Method in brief: as §1

[39] = molecular target: DRAK1(h) (Homo sapiens, UniProt Q9UEE5)
Method in brief: as §1

[40] = molecular target: IGF-1R(h) (Homo sapiens, UniProt P08069)
Method in brief: as §1

[41] = molecular target: PKBγ(h) (Homo sapiens, UniProt Q9Y243)
Method in brief: as §1

p70S6K(h), sequence (P23443 whole entry): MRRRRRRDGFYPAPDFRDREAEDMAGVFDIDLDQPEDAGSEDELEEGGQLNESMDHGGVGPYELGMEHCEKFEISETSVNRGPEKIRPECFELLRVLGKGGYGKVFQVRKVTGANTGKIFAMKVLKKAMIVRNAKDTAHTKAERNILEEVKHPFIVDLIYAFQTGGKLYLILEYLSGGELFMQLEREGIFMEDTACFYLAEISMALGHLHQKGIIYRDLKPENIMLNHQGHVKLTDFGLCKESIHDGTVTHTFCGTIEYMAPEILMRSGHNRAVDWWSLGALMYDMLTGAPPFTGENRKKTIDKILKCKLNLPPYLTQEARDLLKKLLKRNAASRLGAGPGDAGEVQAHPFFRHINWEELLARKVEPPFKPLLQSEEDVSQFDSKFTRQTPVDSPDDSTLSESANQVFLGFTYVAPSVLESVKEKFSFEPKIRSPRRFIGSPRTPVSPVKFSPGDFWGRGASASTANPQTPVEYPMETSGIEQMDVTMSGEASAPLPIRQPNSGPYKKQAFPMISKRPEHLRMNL
CK1γ2(h), sequence (P78368 whole entry): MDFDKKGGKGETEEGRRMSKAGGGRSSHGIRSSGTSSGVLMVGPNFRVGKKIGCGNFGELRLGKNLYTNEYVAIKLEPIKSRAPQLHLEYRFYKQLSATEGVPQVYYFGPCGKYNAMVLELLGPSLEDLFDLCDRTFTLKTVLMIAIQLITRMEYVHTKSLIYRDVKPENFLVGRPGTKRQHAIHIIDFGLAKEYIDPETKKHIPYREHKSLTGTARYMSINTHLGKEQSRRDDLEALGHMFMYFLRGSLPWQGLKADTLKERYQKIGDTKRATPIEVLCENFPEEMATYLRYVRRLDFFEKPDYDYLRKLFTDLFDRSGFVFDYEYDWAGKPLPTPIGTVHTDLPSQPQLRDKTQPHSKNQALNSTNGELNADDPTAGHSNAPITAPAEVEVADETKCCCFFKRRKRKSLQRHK
PTK5(h), sequence (P42685 whole entry): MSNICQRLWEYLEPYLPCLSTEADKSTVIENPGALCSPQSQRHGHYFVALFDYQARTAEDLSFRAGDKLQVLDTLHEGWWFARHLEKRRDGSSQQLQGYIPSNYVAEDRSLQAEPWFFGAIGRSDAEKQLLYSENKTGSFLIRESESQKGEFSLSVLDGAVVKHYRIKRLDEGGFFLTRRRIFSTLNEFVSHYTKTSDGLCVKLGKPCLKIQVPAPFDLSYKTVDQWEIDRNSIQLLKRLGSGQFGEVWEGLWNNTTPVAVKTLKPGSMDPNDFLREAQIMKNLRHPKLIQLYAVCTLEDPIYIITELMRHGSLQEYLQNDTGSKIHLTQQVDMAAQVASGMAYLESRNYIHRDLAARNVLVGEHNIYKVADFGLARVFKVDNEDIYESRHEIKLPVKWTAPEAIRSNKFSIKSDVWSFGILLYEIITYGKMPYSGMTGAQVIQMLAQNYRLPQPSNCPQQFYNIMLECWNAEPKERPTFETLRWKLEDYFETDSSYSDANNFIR
Rsk3(h), sequence (Q15349 whole entry): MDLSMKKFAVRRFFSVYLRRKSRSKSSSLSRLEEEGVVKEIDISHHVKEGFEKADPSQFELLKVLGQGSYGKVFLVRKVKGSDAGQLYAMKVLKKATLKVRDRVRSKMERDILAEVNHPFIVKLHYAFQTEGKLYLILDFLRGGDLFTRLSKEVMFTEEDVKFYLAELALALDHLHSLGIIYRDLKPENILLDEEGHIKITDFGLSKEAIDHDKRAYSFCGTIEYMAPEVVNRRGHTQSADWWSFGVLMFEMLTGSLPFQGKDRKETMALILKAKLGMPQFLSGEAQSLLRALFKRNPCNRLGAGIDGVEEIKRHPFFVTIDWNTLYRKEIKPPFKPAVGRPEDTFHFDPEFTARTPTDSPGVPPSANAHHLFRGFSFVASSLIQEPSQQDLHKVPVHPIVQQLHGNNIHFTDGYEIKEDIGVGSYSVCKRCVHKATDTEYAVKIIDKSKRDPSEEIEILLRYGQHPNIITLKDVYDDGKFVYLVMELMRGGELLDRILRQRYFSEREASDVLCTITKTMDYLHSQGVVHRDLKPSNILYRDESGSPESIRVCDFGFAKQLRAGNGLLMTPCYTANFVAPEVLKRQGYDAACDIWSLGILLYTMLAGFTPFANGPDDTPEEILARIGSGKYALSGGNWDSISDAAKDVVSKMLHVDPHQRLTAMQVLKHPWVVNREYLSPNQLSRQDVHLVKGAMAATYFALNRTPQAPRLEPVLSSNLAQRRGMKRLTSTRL
PKCδ(h), sequence (Q05655 whole entry): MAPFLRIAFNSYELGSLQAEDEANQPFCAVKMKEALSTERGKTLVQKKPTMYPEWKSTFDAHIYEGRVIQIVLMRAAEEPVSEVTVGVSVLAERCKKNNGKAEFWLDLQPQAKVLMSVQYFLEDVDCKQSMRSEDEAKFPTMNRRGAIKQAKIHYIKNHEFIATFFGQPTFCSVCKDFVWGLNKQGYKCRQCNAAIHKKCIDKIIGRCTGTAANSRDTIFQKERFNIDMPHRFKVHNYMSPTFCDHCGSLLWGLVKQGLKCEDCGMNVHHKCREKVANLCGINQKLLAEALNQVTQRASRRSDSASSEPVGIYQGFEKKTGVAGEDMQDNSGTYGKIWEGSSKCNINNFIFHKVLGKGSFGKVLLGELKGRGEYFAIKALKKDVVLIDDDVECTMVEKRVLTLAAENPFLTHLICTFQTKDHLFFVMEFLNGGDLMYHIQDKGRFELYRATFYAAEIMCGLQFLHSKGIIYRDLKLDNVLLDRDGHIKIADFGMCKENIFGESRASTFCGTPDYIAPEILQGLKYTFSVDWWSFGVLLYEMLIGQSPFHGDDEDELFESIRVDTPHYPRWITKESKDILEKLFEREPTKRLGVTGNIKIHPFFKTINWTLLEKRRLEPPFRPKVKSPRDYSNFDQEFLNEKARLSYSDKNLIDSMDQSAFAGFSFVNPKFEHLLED
PKCε(h), sequence (Q02156 whole entry): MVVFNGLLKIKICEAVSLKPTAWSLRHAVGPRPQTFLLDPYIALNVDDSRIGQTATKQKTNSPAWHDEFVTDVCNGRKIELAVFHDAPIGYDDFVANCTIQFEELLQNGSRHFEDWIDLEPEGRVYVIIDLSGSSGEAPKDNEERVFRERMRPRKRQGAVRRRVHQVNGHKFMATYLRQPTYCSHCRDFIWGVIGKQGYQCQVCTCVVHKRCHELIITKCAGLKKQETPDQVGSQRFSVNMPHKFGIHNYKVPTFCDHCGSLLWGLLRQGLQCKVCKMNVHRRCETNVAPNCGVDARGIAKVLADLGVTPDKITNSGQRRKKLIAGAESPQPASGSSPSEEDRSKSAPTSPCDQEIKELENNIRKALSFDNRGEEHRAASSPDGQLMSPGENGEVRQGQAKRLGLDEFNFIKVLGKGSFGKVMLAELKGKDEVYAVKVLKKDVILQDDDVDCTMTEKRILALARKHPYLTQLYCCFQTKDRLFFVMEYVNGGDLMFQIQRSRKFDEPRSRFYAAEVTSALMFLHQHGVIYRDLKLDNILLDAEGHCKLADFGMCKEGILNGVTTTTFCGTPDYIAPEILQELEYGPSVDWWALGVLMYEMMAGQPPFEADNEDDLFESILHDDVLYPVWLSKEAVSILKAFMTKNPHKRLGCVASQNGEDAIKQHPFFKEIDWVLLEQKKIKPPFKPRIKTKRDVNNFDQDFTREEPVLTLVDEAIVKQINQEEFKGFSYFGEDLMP
DRAK1(h), sequence (Q9UEE5 whole entry): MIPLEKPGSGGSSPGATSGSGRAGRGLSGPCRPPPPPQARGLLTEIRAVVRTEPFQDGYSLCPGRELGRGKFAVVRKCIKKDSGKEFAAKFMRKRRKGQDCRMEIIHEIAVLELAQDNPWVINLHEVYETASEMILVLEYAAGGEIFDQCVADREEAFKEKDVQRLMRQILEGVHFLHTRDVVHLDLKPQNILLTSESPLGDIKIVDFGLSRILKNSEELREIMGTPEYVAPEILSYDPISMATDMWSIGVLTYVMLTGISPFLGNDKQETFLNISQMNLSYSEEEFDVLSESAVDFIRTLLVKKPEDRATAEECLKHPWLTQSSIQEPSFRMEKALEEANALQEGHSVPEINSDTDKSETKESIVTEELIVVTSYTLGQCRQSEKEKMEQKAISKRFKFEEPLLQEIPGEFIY
NEK3(h), sequence (P51956 whole entry): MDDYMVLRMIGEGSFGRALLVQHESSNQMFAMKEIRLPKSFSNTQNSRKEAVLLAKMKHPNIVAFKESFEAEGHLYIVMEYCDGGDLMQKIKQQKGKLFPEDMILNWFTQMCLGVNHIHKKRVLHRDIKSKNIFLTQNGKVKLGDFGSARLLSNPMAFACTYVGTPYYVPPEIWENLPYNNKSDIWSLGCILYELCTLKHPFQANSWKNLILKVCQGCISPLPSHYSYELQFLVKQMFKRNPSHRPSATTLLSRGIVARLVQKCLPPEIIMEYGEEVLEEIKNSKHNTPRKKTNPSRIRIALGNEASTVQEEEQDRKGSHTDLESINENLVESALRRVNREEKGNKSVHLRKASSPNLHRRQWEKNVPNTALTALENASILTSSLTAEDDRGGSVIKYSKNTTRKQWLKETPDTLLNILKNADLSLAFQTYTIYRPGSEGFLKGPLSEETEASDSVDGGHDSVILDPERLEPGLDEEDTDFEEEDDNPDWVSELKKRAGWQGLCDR
CLK3(h), sequence (P49761 whole entry): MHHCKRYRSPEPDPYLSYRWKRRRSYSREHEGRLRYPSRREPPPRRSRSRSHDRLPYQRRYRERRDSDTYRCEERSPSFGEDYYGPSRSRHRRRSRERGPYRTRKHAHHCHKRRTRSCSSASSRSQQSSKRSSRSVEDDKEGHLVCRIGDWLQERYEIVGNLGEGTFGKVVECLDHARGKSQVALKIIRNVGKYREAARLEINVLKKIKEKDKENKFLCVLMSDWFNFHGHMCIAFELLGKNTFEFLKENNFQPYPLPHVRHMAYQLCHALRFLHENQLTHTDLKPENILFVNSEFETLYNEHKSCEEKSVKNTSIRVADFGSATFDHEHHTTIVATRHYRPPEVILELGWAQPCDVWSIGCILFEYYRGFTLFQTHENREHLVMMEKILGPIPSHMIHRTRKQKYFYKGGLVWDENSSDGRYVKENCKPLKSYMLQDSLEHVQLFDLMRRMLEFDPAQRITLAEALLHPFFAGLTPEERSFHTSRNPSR

inhibition at 1 µM [1]: 12%
inhibition at 1 µM [2]: 8%
inhibition at 1 µM [3]: 0%
inhibition at 1 µM [4]: 12%
inhibition at 1 µM [5]: 29%
inhibition at 1 µM [6]: 51%
inhibition at 1 µM [7]: 29%
inhibition at 1 µM [8]: 74%
inhibition at 1 µM [9]: 33%
inhibition at 1 µM [10]: -14%
inhibition at 1 µM [11]: 5%
inhibition at 1 µM [12]: -1%
inhibition at 1 µM [13]: 0%
inhibition at 1 µM [14]: 16%
inhibition at 1 µM [15]: 5%
inhibition at 1 µM [16]: 74%
inhibition at 1 µM [17]: 10%
inhibition at 1 µM [18]: 61%
inhibition at 1 µM [19]: 8%
inhibition at 1 µM [20]: 48%
inhibition at 1 µM [21]: 67%
inhibition at 1 µM [22]: 55%
inhibition at 1 µM [23]: 49%
inhibition at 1 µM [24]: 36%
inhibition at 1 µM [25]: -21%
inhibition at 1 µM [26]: 67%
inhibition at 1 µM [27]: 79%
inhibition at 1 µM [28]: 38%
inhibition at 1 µM [29]: 16%
inhibition at 1 µM [30]: 77%
inhibition at 1 µM [31]: 53%
inhibition at 1 µM [32]: -2%
inhibition at 1 µM [33]: 20%
inhibition at 1 µM [34]: 0%
inhibition at 1 µM [35]: 53%
inhibition at 1 µM [36]: 30%
inhibition at 1 µM [37]: -5%
inhibition at 1 µM [38]: 17%
inhibition at 1 µM [39]: 67%
inhibition at 1 µM [40]: 64%
inhibition at 1 µM [41]: 12%
Structure (SMILES): Nc1n[nH]c2ccc(-c3ccnc4[nH]c(-c5ccccc5)cc34)cc12 [Compound 4]

inhibition at 1 µM [1]: -1%
inhibition at 1 µM [2]: -12%
inhibition at 1 µM [3]: -14%
inhibition at 1 µM [4]: 13%
inhibition at 1 µM [5]: 30%
inhibition at 1 µM [6]: 9%
inhibition at 1 µM [7]: 19%
inhibition at 1 µM [8]: 23%
inhibition at 1 µM [9]: -15%
inhibition at 1 µM [10]: 0%
inhibition at 1 µM [11]: 4%
inhibition at 1 µM [12]: 4%
inhibition at 1 µM [13]: -11%
inhibition at 1 µM [14]: 11%
inhibition at 1 µM [15]: 7%
inhibition at 1 µM [16]: 29%
inhibition at 1 µM [17]: -3%
inhibition at 1 µM [18]: 32%
inhibition at 1 µM [19]: -4%
inhibition at 1 µM [20]: 14%
inhibition at 1 µM [21]: 26%
inhibition at 1 µM [22]: 17%
inhibition at 1 µM [23]: 28%
inhibition at 1 µM [24]: 4%
inhibition at 1 µM [25]: -22%
inhibition at 1 µM [26]: 51%
inhibition at 1 µM [27]: 39%
inhibition at 1 µM [28]: 22%
inhibition at 1 µM [29]: 6%
inhibition at 1 µM [30]: 31%
inhibition at 1 µM [31]: 27%
inhibition at 1 µM [32]: -6%
inhibition at 1 µM [33]: 17%
inhibition at 1 µM [34]: -8%
inhibition at 1 µM [35]: 25%
inhibition at 1 µM [36]: 10%
inhibition at 1 µM [37]: -2%
inhibition at 1 µM [38]: 4%
inhibition at 1 µM [39]: 24%
inhibition at 1 µM [40]: 14%
inhibition at 1 µM [41]: 0%
Structure (SMILES): Nc1n[nH]c2ccc(-c3ccnc4[nH]c(-c5cccc(OCc6ccccc6)c5)cc34)cc12 [Compound 5r [SU1261]]
